How the values were obtained:
Kentucky bluegrass = assay: Pot test in greenhouse, lawn phytotoxicity (Test Example 2); format: in vivo, Poa pratensis; set-up: key: −:None; ±:Very slight; +:Slight; 2+:Moderate; 3+:Heavy; ×:Dead; settings: flowable of Preparation Example 3 on bred lawn sod in pots, 30 days after treatment
Excerpt: (§1) Plastic pots having a size of 100 m^2/5000 were filled with soil of an upland farm, and planted with a lawn sod withdrawn by a hole cutter from various bred turfs. The planted pots were bred and managed in a greenhouse for about 1 month, and then the lawn grasses were cut to the same height to use the pots as sample pots. On the day of the cutting, a predetermined amount of the flowable prepared by the method described in the Preparation Example 3 applied to the sample pots in an amount of 250 ml/m^2 of dilution with water. Then, the pots were allowed to stand in the greenhouse, and sprinkled with water at the appropriate times. Thirty days after treatment with the composition, its phytotoxicity to the lawn grasses was observed. Evaluations of the phytotoxicity to the lawn grasses in the table were made according to the following criteria:

Japanese lawngrass = assay: as above; format: in vivo, Zoysia japonica; set-up: key: −:None; ±:Very slight; +:Slight; 2+:Moderate; 3+:Heavy; ×:Dead; settings: flowable of Preparation Example 3 on bred lawn sod in pots, 30 days after treatment
Excerpt: as §1

Bermudagrass = assay: as above; format: in vivo; set-up: key: −:None; ±:Very slight; +:Slight; 2+:Moderate; 3+:Heavy; ×:Dead; settings: flowable of Preparation Example 3 on bred lawn sod in pots, 30 days after treatment
Excerpt: as §1

annual bluegrass [1] = assay: Field test, lawn grass seed overseeding test, weed growth inhibition (Test Example 4); format: in vivo, Poa annua L.; settings: 30 days after treatment
Procedure: Evaluation Criteria for Weed Growth Inhibition Effect:
A land of breeding of South Japanese lawngrass was divided into plots of 1 m^2 (1×1 m), and seeds of perennial ryegrass or tall fescue, and seeds of annual bluegrass as a weed were sowed on the entire surface of each plot. On the day of sowing, a predetermined amount of the flowable prepared by the method described in the Preparation Example 3 was applied in an amount of 250 ml/m^2 of dilution with water. Thirty days after treatment with the composition, its weed growth inhibition effect and lawn phytotoxicity were observed. Evaluations of the weed growth inhibition effect and lawn phytotoxicity in the table were made according to mentioned criteria.

Bentgrass = assay: Pot test in greenhouse, lawn phytotoxicity (Test Example 2); format: in vivo, Agrostis L.; set-up: key: −:None; ±:Very slight; +:Slight; 2+:Moderate; 3+:Heavy; ×:Dead; settings: flowable of Preparation Example 3 on bred lawn sod in pots, 30 days after treatment
Excerpt: as §1

Perennial ryegrass = assay: as above; format: in vivo, Lolium SPP.; set-up: key: −:None; ±:Very slight; +:Slight; 2+:Moderate; 3+:Heavy; ×:Dead; settings: flowable of Preparation Example 3 on bred lawn sod in pots, 30 days after treatment
Excerpt: as §1

Cyperus brevifolius = assay: Pot test in greenhouse, weed growth inhibition (Test Example 1); format: in vivo; settings: flowable of Preparation Example 3, soil surface, rhizomes buried about 1 cm, 30 days after treatment
Excerpt: (§2) Plastic pots having a size of 100 m^2/3000 were filled with soil of an upland farm, and the surface of the soil was flattened. Then, the soil surfaces were sowed with weed seeds of annual bluegrass, foxtail, and flat-sedge. After sowing, the seeds were covered with soil to a height of about 5 mm. Also, the rhizomes of Cyperus brevifolius were buried to a depth of about 1 cm. One day after sowing, a predetermined amount of the flowable prepared by the method described in the Preparation Example 3 was applied to the soil surface in an amount of 250 ml/m^2 of dilution with water. Then, the pots were allowed to stand in the greenhouse, and sprinkled with water at the appropriate times. Thirty days after treatment with the composition, its growth inhibition effect was observed. The growth inhibition effect in the table was evaluated according to the following criteria:
(§3) Evaluation Criteria for Weed Growth Inhibition Effect: […]

foxtail = assay: as above; format: in vivo; settings: flowable of Preparation Example 3, soil surface one day after sowing, 30 days after treatment
Excerpt: as §2, §3

South Japanese lawngrass = assay: Pot test in greenhouse, lawn phytotoxicity (Test Example 2); format: in vivo, Zoysia matrella; set-up: key: −:None; ±:Very slight; +:Slight; 2+:Moderate; 3+:Heavy; ×:Dead; settings: flowable of Preparation Example 3 on bred lawn sod in pots, 30 days after treatment
Excerpt: as §1

annual bluegrass [2] = assay: Pot test in greenhouse, weed growth inhibition (Test Example 1); format: in vivo, Poa annua L.; settings: flowable of Preparation Example 3, soil surface one day after sowing, 30 days after treatment
Excerpt: as §2, §3

Tall fescue = assay: Pot test in greenhouse, lawn phytotoxicity (Test Example 2); format: in vivo, Festuca arundinacea; set-up: key: −:None; ±:Very slight; +:Slight; 2+:Moderate; 3+:Heavy; ×:Dead; settings: flowable of Preparation Example 3 on bred lawn sod in pots, 30 days after treatment
Excerpt: as §1

flat-sedge = assay: Pot test in greenhouse, weed growth inhibition (Test Example 1); format: in vivo, Cyperus microiria; settings: flowable of Preparation Example 3, soil surface one day after sowing, 30 days after treatment
Excerpt: as §2, §3

[3] = 100 g active ingredient/1000 m^2
[4] = 250 g active ingredient/1000 m^2
[5] = 500 g active ingredient/1000 m^2
[6] = 750 g active ingredient/1000 m^2
[7] = 1000 g active ingredient/1000 m^2
[8] = 2000 g active ingredient/1000 m^2
[9] = 50 g active ingredient/1000 m^2

For `CC(C)(NC(=O)NCc1ccccc1Cl)c1ccccc1` [cumyluron, 1-(2-chlorobenzyl)-3-(1-methyl-1-phenylethyl)urea], the “Lawn phytotoxicity Kentucky bluegrass” value (Kentucky bluegrass; [3]) was “−”, the “Lawn phytotoxicity Kentucky bluegrass” value (Kentucky bluegrass; [4]) was “−” and the “Lawn phytotoxicity Kentucky bluegrass” value (Kentucky bluegrass; [5]) was “−”. The “Lawn phytotoxicity Kentucky bluegrass” value (Kentucky bluegrass; [6]) was “−”, the “Lawn phytotoxicity Kentucky bluegrass” value (Kentucky bluegrass; [7]) was “−” and the “Lawn phytotoxicity Kentucky bluegrass” value (Kentucky bluegrass; [8]) was “−”. For the same compound, the “Lawn phytotoxicity Japanese lawngrass” value (Japanese lawngrass; [3]) was “−”, the “Lawn phytotoxicity Japanese lawngrass” value (Japanese lawngrass; [4]) was “−” and the “Lawn phytotoxicity Japanese lawngrass” value (Japanese lawngrass; [5]) was “−”. The “Lawn phytotoxicity Japanese lawngrass” value (Japanese lawngrass; [6]) was “−”, the “Lawn phytotoxicity Japanese lawngrass” value (Japanese lawngrass; [7]) was “−” and the “Lawn phytotoxicity Japanese lawngrass” value (Japanese lawngrass; [8]) was “−”. For the same compound, the “Lawn phytotoxicity Bermuda-grass” value (Bermudagrass; [3]) was “−”, the “Lawn phytotoxicity Bermuda-grass” value (Bermudagrass; [4]) was “−” and the “Lawn phytotoxicity Bermuda-grass” value (Bermudagrass; [5]) was “−”. The “Lawn phytotoxicity Bermuda-grass” value (Bermudagrass; [6]) was “−”, the “Lawn phytotoxicity Bermuda-grass” value (Bermudagrass; [7]) was “−” and the “Lawn phytotoxicity Bermuda-grass” value (Bermudagrass; [8]) was “−”. For the same compound, the “Inhibitory effect annual bluegrass” value (annual bluegrass [1]; 100 g active ingredient/1000 m^2, flowable of Preparation Example 3 applied on the day of sowing) was 10 (10:100% inhibition), the “Inhibitory effect annual bluegrass” value (annual bluegrass [1]; 250 g active ingredient/1000 m^2, flowable of Preparation Example 3 applied on the day of sowing) was 10 (10:100% inhibition) and the “Inhibitory effect annual bluegrass” value (annual bluegrass [1]; 500 g active ingredient/1000 m^2, flowable of Preparation Example 3 applied on the day of sowing) was 10 (10:100% inhibition). The “Inhibitory effect annual bluegrass” value (annual bluegrass [1]; 750 g active ingredient/1000 m^2, flowable of Preparation Example 3 applied on the day of sowing) was 10 (10:100% inhibition), the “Inhibitory effect annual bluegrass” value (annual bluegrass [1]; 1000 g active ingredient/1000 m^2, flowable of Preparation Example 3 applied on the day of sowing) was 10 (10:100% inhibition) and the “Lawn phytotoxicity Bent-grass” value (Bentgrass; [3]) was “−”. For the same compound, the “Lawn phytotoxicity Bent-grass” value (Bentgrass; [4]) was “−”, the “Lawn phytotoxicity Bent-grass” value (Bentgrass; [5]) was “−” and the “Lawn phytotoxicity Bent-grass” value (Bentgrass; [6]) was “−”. For the same compound, the “Lawn phytotoxicity Bent-grass” value (Bentgrass; [7]) was “−”, the “Lawn phytotoxicity Bent-grass” value (Bentgrass; [8]) was “−” and the “Lawn phytotoxicity Perennial ryegrass” value (Perennial ryegrass; [3]) was “−”. The “Lawn phytotoxicity Perennial ryegrass” value (Perennial ryegrass; [4]) was “−”, the “Lawn phytotoxicity Perennial ryegrass” value (Perennial ryegrass; [5]) was “−” and the “Lawn phytotoxicity Perennial ryegrass” value (Perennial ryegrass; [6]) was “−”. For the same compound, the “Lawn phytotoxicity Perennial ryegrass” value (Perennial ryegrass; [7]) was “−”, the “Lawn phytotoxicity Perennial ryegrass” value (Perennial ryegrass; [8]) was “−” and the “Inhibitory effect Cyperus brevifolius” value (Cyperus brevifolius; [9]) was 1 (1:10% inhibition). The “Inhibitory effect Cyperus brevifolius” value (Cyperus brevifolius; [3]) was 5 (5:50% inhibition), the “Inhibitory effect Cyperus brevifolius” value (Cyperus brevifolius; [4]) was 9 (9:90% inhibition) and the “Inhibitory effect Cyperus brevifolius” value (Cyperus brevifolius; [5]) was 10 (10:100% inhibition). For the same compound, the “Inhibitory effect Cyperus brevifolius” value (Cyperus brevifolius; [6]) was 10 (10:100% inhibition), the “Inhibitory effect Cyperus brevifolius” value (Cyperus brevifolius; [7]) was 10 (10:100% inhibition) and the Inhibitory effect foxtail (foxtail; [9]) was 9 (9:90% inhibition). For the same compound, the Inhibitory effect foxtail (foxtail; [3]) was 10 (10:100% inhibition), the Inhibitory effect foxtail (foxtail; [4]) was 10 (10:100% inhibition) and the Inhibitory effect foxtail (foxtail; [5]) was 10 (10:100% inhibition). For the same compound, the Inhibitory effect foxtail (foxtail; [6]) was 10 (10:100% inhibition), the Inhibitory effect foxtail (foxtail; [7]) was 10 (10:100% inhibition) and the “Lawn phytotoxicity South Japanese lawngrass” value (South Japanese lawngrass; [3]) was “−”. For the same compound, the “Lawn phytotoxicity South Japanese lawngrass” value (South Japanese lawngrass; [4]) was “−”, the “Lawn phytotoxicity South Japanese lawngrass” value (South Japanese lawngrass; [5]) was “−” and the “Lawn phytotoxicity South Japanese lawngrass” value (South Japanese lawngrass; [6]) was “−”. The “Lawn phytotoxicity South Japanese lawngrass” value (South Japanese lawngrass; [7]) was “−”, the “Lawn phytotoxicity South Japanese lawngrass” value (South Japanese lawngrass; [8]) was “−” and the “Inhibitory effect annual bluegrass” value (annual bluegrass [2]; [9]) was 9 (9:90% inhibition). For the same compound, the “Inhibitory effect annual bluegrass” value (annual bluegrass [2]; [3]) was 10 (10:100% inhibition), the “Inhibitory effect annual bluegrass” value (annual bluegrass [2]; [4]) was 10 (10:100% inhibition) and the “Inhibitory effect annual bluegrass” value (annual bluegrass [2]; [5]) was 10 (10:100% inhibition). For the same compound, the “Inhibitory effect annual bluegrass” value (annual bluegrass [2]; [6]) was 10 (10:100% inhibition), the “Inhibitory effect annual bluegrass” value (annual bluegrass [2]; [7]) was 10 (10:100% inhibition) and the “Lawn phytotoxicity Tall fescue” value (Tall fescue; [3]) was “−”. The “Lawn phytotoxicity Tall fescue” value (Tall fescue; [4]) was “−”, the “Lawn phytotoxicity Tall fescue” value (Tall fescue; [5]) was “−” and the “Lawn phytotoxicity Tall fescue” value (Tall fescue; [6]) was “−”. The “Lawn phytotoxicity Tall fescue” value (Tall fescue; [7]) was “−”, the “Lawn phytotoxicity Tall fescue” value (Tall fescue; [8]) was “−” and the Inhibitory effect flat-sedge (flat-sedge; [9]) was 10 (10:100% inhibition). The Inhibitory effect flat-sedge (flat-sedge; [3]) was 10 (10:100% inhibition), the Inhibitory effect flat-sedge (flat-sedge; [4]) was 10 (10:100% inhibition) and the Inhibitory effect flat-sedge (flat-sedge; [5]) was 10 (10:100% inhibition). For the same compound, the Inhibitory effect flat-sedge (flat-sedge; [6]) was 10 (10:100% inhibition) and the Inhibitory effect flat-sedge (flat-sedge; [7]) was 10 (10:100% inhibition).

From patent US6514913B1, “Weed growth inhibitory compositions” (Marubeni Agrotec Corporation, priority 1998, dated 2003)
